For 1 substance, solubility results are on record in PMC3209665 (Chemical biology & drug design, 2009).

The nature of the data set: Solubility in ITC buffer. The data set is classed as physicochemical. Particulars: 10 mM sodium acetate, pH 5.0, 2% DMSO.

Regarding KNI-10006, the solubility entry is “limited solubility”.
